These are literature values, as cited in patent US7510836B2, “Alpha arteether resistance domain” (priority 2003, dated 2009).

For data set [1] the following is noted: cited from earlier work.
The next data set concerns malaria. Particulars: cited from earlier work.
The conditions of data set [2]: cited from earlier work. The source holds these as a separate data set.

Regarding `C[C@@H]1CC[C@H]2[C@@H](C)C(=O)O[C@@H]3O[C@@]4(C)CC[C@@H]1[C@]32OO4` [Artemisinin, artemisinin], in data set [1], the half-life result is listed as “short”. Moreover, the Plasmodicidal property result with malaria is listed as “high plasmodicidal property”. For the same compound, the “Solubility in most aprotic solvents” value in data set [2] (aprotic solvents) is “readily soluble”. Also, the “Solubility in water and oil” value in data set [2] (water and oil) is “poorly soluble”.
